According to ChEMBL document CHEMBL6096638, “Design, synthesis and biological evaluation of novel TMPRSS2-PROTACs with florosubstituted 4-guanidino-N-phenylbenzamide derivative ligands” (Bioorg Med Chem, 2024):
The source made the active and inactive calls. The calls are words filed in the database; no cut-off is given here.

Columns and labels:
NCI-H1299 = assay: Antiproliferative activity against human NCI-H1299 cells assessed as inhibition of cell growth incubated for 48 hrs by CCK-8 assay; type: functional, cell-based; details: NCI-H1299, 48 h
PC-3 = assay: Antiproliferative activity against human PC-3 cells assessed as inhibition of cell growth incubated for 48 hrs by CCK-8 assay; type: functional, cell-based; details: PC-3, 48 h
SH-SY5Y = assay: Antiproliferative activity against human SH-SY5Y cells assessed as inhibition of cell growth incubated for 48 hrs by CCK-8 assay; type: functional, cell-based
A549 = assay: Antiproliferative activity against human A549 cells assessed as inhibition of cell growth incubated for 48 hrs by CCK-8 assay; type: functional, cell-based; details: A549, 48 h
DU-145 [1] = assay: Antiproliferative activity against human DU-145 cells assessed as inhibition of cell growth incubated for 48 hrs by CCK-8 assay; type: functional, cell-based; details: DU-145, 48 h
VCaP = assay: Antiproliferative activity against human VCaP cells assessed as inhibition of cell growth incubated for 48 hrs by CCK-8 assay; type: functional, cell-based
MRC5 = assay: Antiproliferative activity against human MRC5 cells assessed as inhibition of cell growth incubated for 48 hrs by CCK-8 assay; type: functional, cell-based; details: MRC5, 48 h
K562 = assay: Antiproliferative activity against human K562 cells assessed as inhibition of cell growth incubated for 48 hrs by CCK-8 assay; type: functional, cell-based; details: K562, 48 h
AGS = assay: Antiproliferative activity against human AGS cells assessed as inhibition of cell growth incubated for 48 hrs by CCK-8 assay; type: functional, cell-based
Calu-3 [2] = assay: Antiproliferative activity against human Calu-3 cells assessed as inhibition of cell growth incubated for 48 hrs by CCK-8 assay; type: functional, cell-based; details: Calu-3, 48 h
MCF7 = assay: Antiproliferative activity against human MCF7 cells assessed as inhibition of cell growth incubated for 48 hrs by CCK-8 assay; type: functional, cell-based; details: MCF7, 48 h
CWR22R = assay: Antiproliferative activity against human 22Rv1 cells assessed as inhibition of cell growth incubated for 48 hrs by CCK-8 assay; type: functional, cell-based; details: 22Rv1, 48 h
SK-N-AS = assay: Antiproliferative activity against human SK-N-AS cells assessed as inhibition of cell growth incubated for 48 hrs by CCK-8 assay; type: functional, cell-based
HepG2 = assay: Antiproliferative activity against human HepG2 cells assessed as inhibition of cell growth incubated for 48 hrs by CCK-8 assay; type: functional, cell-based; details: HepG2, 48 h
786-0 = assay: Antiproliferative activity against human 786-0 cells assessed as inhibition of cell growth incubated for 48 hrs by CCK-8 assay; type: functional, cell-based; details: 786-0, 48 h
MDA-MB-231 = assay: Antiproliferative activity against human MDA-MB-231 cells assessed as inhibition of cell growth incubated for 48 hrs by CCK-8 assay; type: functional, cell-based; details: MDA-MB-231, 48 h
HT-29 [3] = assay: Antiproliferative activity against human HT-29 cells assessed as inhibition of cell growth incubated for 48 hrs by CCK-8 assay; type: functional, cell-based; details: HT-29, 48 h
A-375 = assay: Antiproliferative activity against human A-375 cells assessed as inhibition of cell growth incubated for 48 hrs by CCK-8 assay; type: functional, cell-based; details: A-375, 48 h
[4] = target: von Hippel-Lindau disease tumor suppressor/Transmembrane protease serine 2 (Homo sapiens) (UniProt O15393+P40337); assay: PROTAC activity at VHL/TMPRSS2 in human HT-29 cells assessed as induction of TMPRSS2 degradation at 2.5 uM incubated for 24 hrs by Western blotting analysis; type: cell-based
HT-29 [5] = assay: Induction of cell cycle arrest in human HT-29 cells assessed as accumulation of cells at G2 phase at 0.8 uM incubated for 36 hrs by PI-staining based flow cytometry; type: functional
DU-145 [6] = assay: Antiproliferative activity against human DU-145 cells assessed as inhibition of cell growth at 20 uM incubated for 48 hrs by CCK-8 assay relative to control; type: functional
HT-29 [7] = assay: Induction of apoptosis in human HT-29 cells assessed as early apoptotic cells at 0.4 uM incubated for 48 hrs by Annexin V-FITC/PI staining based flow cytometric analysis (reference value: 1.22 %); type: functional
HT-29 [8] = assay: Induction of apoptosis in human HT-29 cells assessed as necrotic cells at 0.4 uM incubated for 48 hrs by Annexin V-FITC/PI staining based flow cytometric analysis (reference value: 2.48 %); type: functional
HT-29 [9] = assay: Induction of apoptosis in human HT-29 cells assessed as early apoptotic cells at 0.2 uM incubated for 48 hrs by Annexin V-FITC/PI staining based flow cytometric analysis (reference value: 1.22 %); type: functional
HT-29 [10] = assay: Induction of apoptosis in human HT-29 cells assessed as viable cells at 0.4 uM incubated for 48 hrs by Annexin V-FITC/PI staining based flow cytometric analysis (reference value: 90.4 %); type: functional; details: read-out: Activity
HT-29 [11] = assay: Inhibition of cell migration in human HT-29 cells at 0.2 to 0.8 uM incubated for 48 hrs by wound healing assay; type: functional, cell-based; details: dose 0.2-0.8 µM
HT-29 [12] = assay: Induction of apoptosis in human HT-29 cells assessed as necrotic cells at 0.8 uM incubated for 48 hrs by Annexin V-FITC/PI staining based flow cytometric analysis (reference value: 2.48 %); type: functional
HT-29 [13] = assay: Induction of apoptosis in human HT-29 cells assessed as viable cells at 0.8 uM incubated for 48 hrs by Annexin V-FITC/PI staining based flow cytometric analysis (reference value: 90.4 %); type: functional; details: read-out: Activity
Calu-3 [14] = assay: Antiproliferative activity against human Calu-3 cells assessed as inhibition of cell growth at 20 uM incubated for 48 hrs by CCK-8 assay relative to control; type: functional
HT-29 [15] = assay: Antiproliferative activity against human HT-29 cells assessed as inhibition of cell growth at 20 uM incubated for 48 hrs by CCK-8 assay relative to control; type: functional
HT-29 [16] = assay: Induction of apoptosis in human HT-29 cells assessed as early apoptotic cells at 0.8 uM incubated for 48 hrs by Annexin V-FITC/PI staining based flow cytometric analysis (reference value: 1.22 %); type: functional
HT-29 [17] = assay: Induction of apoptosis in human HT-29 cells assessed as late apoptotic cells at 0.4 uM incubated for 48 hrs by Annexin V-FITC/PI staining based flow cytometric analysis (reference value: 5.87 %); type: functional
HT-29 [18] = assay: Induction of apoptosis in human HT-29 cells assessed as late apoptotic cells at 0.8 uM incubated for 48 hrs by Annexin V-FITC/PI staining based flow cytometric analysis (reference value: 5.87 %); type: functional
HT-29 [19] = assay: Induction of apoptosis in human HT-29 cells assessed as viable cells at 0.2 uM incubated for 48 hrs by Annexin V-FITC/PI staining based flow cytometric analysis (reference value: 90.4 %); type: functional; details: read-out: Activity
HT-29 [20] = assay: Induction of apoptosis in human HT-29 cells assessed as necrotic cells at 0.2 uM incubated for 48 hrs by Annexin V-FITC/PI staining based flow cytometric analysis (reference value: 2.48 %); type: functional
HT-29 [21] = assay: Inhibition of colony formation in human HT-29 cells incubated for 24 hrs by crystal violet staining based analysis; type: functional, cell-based; details: dose 0.1-0.4 µM
HT-29 [22] = assay: Induction of apoptosis in human HT-29 cells assessed as late apoptotic cells at 0.2 uM incubated for 48 hrs by Annexin V-FITC/PI staining based flow cytometric analysis (reference value: 5.87 %); type: functional

Chain of von Hippel-Lindau disease tumor suppressor/Transmembrane protease serine 2 (Homo sapiens) (O15393 whole entry, looked up): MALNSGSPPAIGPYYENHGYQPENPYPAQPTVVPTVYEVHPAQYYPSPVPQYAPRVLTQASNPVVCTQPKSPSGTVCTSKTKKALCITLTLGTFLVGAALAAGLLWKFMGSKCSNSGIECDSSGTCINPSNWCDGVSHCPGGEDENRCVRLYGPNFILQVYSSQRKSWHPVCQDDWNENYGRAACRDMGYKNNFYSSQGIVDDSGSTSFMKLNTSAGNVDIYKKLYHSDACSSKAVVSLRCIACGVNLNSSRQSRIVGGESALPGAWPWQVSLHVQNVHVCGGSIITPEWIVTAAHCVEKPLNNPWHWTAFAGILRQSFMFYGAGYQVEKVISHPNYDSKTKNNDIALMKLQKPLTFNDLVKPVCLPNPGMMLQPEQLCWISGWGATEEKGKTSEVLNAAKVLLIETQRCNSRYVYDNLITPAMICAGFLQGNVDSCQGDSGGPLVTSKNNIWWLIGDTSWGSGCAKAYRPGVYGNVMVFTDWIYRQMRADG
Chain of von Hippel-Lindau disease tumor suppressor/Transmembrane protease serine 2 (Homo sapiens) (P40337 whole entry, looked up): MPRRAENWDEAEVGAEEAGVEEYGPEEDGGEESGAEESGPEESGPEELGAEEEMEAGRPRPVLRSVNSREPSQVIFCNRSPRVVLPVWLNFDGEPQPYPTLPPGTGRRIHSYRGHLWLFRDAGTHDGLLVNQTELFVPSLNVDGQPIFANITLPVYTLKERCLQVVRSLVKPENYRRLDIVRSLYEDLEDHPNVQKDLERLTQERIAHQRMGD

Row | Compound | IC50 (NCI-H1299) [µM] | IC50 (PC-3) [µM] | IC50 (SH-SY5Y) [µM] | IC50 (A549) [µM] | IC50 (DU-145 [1]) [µM] | IC50 (VCaP) [µM] | IC50 (MRC5) [µM] | IC50 (K562) [µM] | IC50 (AGS) [µM] | IC50 (Calu-3 [2]) [µM] | IC50 (MCF7) [µM] | IC50 (CWR22R) [µM] | IC50 (SK-N-AS) [µM] | IC50 (HepG2) [µM] | IC50 (786-0) [µM] | IC50 (MDA-MB-231) [µM] | IC50 (HT-29 [3]) [µM] | IC50 (A-375) [µM] | further results
1 | N=C(N)Nc1ccc(C(=O)Oc2ccc3cc(C(=N)N)ccc3c2)cc1 [NAFAMOSTAT] | 19.2 | 39.9 | 37.1 | > 40 | > 40 | > 40 | > 40 | > 40 | > 40 | 37.9 | > 40 | > 40 | > 40 | > 40 | > 40 | > 40 | > 40 | > 40 | 
2 | Cc1ncsc1-c1ccc([C@H](C)NC(=O)[C@@H]2C[C@@H](O)CN2C(=O)[C@@H](NC(=O)CN2CCC(CN3CCN(c4ccc(NC(=O)c5cc(F)c(NC(=N)N)cc5F)cc4)CC3)CC2)C(C)(C)C)cc1.Cl | > 40 | 24.5 | 18 | 12.3 | 5.26 | 7.57 | > 40 | 9.01 | 14.9 | 1.62 | 13.3 | 20 | 6.91 | 8.73 | 34.8 | 10.7 | 0.39 | 9.63 | Activity [4]: Active; Activity (HT-29 [5]): Active; inhibition at 20 µM (DU-145 [6]): 74.6%; Activity (HT-29 [7]): 3.74%; Activity (HT-29 [8]): 4.21%; Activity (HT-29 [9]): 1.58%; viability at 0.4 µM (HT-29 [10]): 80.4%; Activity (HT-29 [11]): Active; Activity (HT-29 [12]): 3.01%; viability at 0.8 µM (HT-29 [13]): 58.5%; inhibition at 20 µM (Calu-3 [14]): 96.1%; inhibition at 20 µM (HT-29 [15]): 94.6%; Activity (HT-29 [16]): 15.3%; Activity (HT-29 [17]): 11.6%; Activity (HT-29 [18]): 23.2%; viability at 0.2 µM (HT-29 [19]): 78.8%; Activity (HT-29 [20]): 6.59%; inhibition (HT-29 [21]): Dose-dependent-effect; Activity (HT-29 [22]): 13%
